# Source: PMC11317440, “Soloxolone para-methylanilide effectively suppresses aggressive phenotype of glioblastoma cells including TGF-β1-induced glial-mesenchymal transition in vitro and inhibits growth of U87 glioblastoma xenografts in mice” (Frontiers in Pharmacology, 2024)
# Columns and labels:
# [1] = tested on: EPNT-5 glioblastoma cells; assay: MTT cell viability assay, EPNT-5 cells, 48 h; assay type: cell-based; conditions: Mus musculus
# Protocol: Cells were seeded in quadruplicate in 96-well plates at 10,000 cells/well and allowed to adhere overnight. The medium was then replaced with serum-free DMEM containing increasing concentrations of soloxolone amides for 48 h. After incubation, 3-(4,5-dimethylthiazol-2-yl)-2,5-diphenyltetrazolium bromide (MTT dye) was added at a final concentration of 0.5 mg/mL and left for 2 h. The resulting formazan crystals were dissolved in DMSO and the optical density was measured at 570 nm using a Multiscan RC plate reader (Thermo LabSystems, Helsinki, Finland).
# [2] = tested on: TGF-β1-induced U118 cells; assay: Cell morphology (aspect ratio) of TGF-β1-induced U118 cells; assay type: cell-based, human; conditions: TGF-β1 50 ng/mL, 7 50 nM, 48 h
# Protocol: After seeding at a concentration of 5,000 cells/well in triplicate in 96-well plates and incubating overnight, U87 and U118 cells were exposed to TGF-β1 (50 ng/mL) and non-toxic concentrations of soloxolone amides for 48 h. An EVOS XL Core microscope with an integrated CMOS camera (Thermo Fisher Scientific, USA) was then used to examine cell morphology at ×20 magnification. Aspect ratio (AR) and area were quantified for at least 150 cells in each experimental group using ImageJ software (NIH, USA).
# [3] = tested on: TGF-β1-treated U118 cells; assay: Adhesion of U118 cells to culture plastic (TrypLE treatment, MTT); assay type: cell-based, human; conditions: TGF-β1 50 ng/mL, 7 50 nM, 48 h
# Protocol: Adhesiveness of glioblastoma cells was assessed by two independent methods. First, cell adhesion to culture plastic was tested using a trypsin treatment assay, as previously described ([Sava et al., 2004]; [Mazuryk et al., 2015]; [van Dijk et al., 2017]). Briefly, U87 and U118 cells (10,000 cells per well of a 96-well plate, n = 4) were cultured with TGF-β1 (50 ng/mL) and non-toxic concentrations of soloxolone amides for 48 h and then treated with a 1:20 dilution of TrypLE Express (Gibco, USA) in PBS for 3 min at 37°C. Non-adherent cells were then removed by a triple PBS wash, and the remaining adherent cells were fixed with 4% formaldehyde and stained with crystal violet dye (0.1% w/v). Images were captured using the iBright 1,500 Imaging System (Invitrogen, USA), and the cell-occupied area was calculated using ImageJ. Alternatively, the number of adherent cells was quantified using the MTT assay.
# [4] = tested on: TGF-β1-treated U87 cells; assay: ECM adhesion assay (Matrigel), U87 cells; assay type: cell-based, human; conditions: TGF-β1 50 ng/mL, 7 50 nM, 48 h
# Protocol: Second, to assess cell adhesion to the extracellular matrix (ECM), an ECM adhesion assay was performed according to previously published method ([Guan et al., 2015]; [Hu et al., 2019]). Briefly, U87 cells were pretreated with TGF-β1 (50 ng/mL) and compound 7 (50 nM) for 48 h, and then seeded in 96-well plates coated with Matrigel (BD Biosciences, Bedford, MA, USA) at a concentration of 30,000 cells for 1 h (n = 3). After that, the wells were washed to remove non-adherent cells, adherent cells were fixed with formaldehyde, stained with crystal violet dye, and analyzed as described above.
# [5] = tested on: TGF-β1-treated U87 cells; assay: Transwell migration (xCELLigence), U87 cells; assay type: cell-based, human; conditions: U87, 7 50 nM, TGF-β1 50 ng/mL, at 72 h
# Protocol: To perform transwell migration, U87 cells were pretreated with TGF-β1 (50 ng/mL) and compound 7 (50 nM) for 48 h. Subsequently, 250,000 cells were placed in the upper chamber of the CIM-16 xCELLigence plate in serum-free DMEM supplemented with compound 7 and TGF-β1 (n = 4), while the lower chamber was filled with DMEM containing 10% FBS. Cell migration was monitored for 72 h using the xCELLigence RTCA DP system (ACEA Biosciences Inc., San Diego, CA, USA). The electrodes placed under the porous membrane detected changes in resistance, which were then converted into cell indices proportional to the number of migrating cells.
# [6] = tested on: TGF-β1-treated U118 cells; assay: Scratch (wound closure) assay, U118 cells; assay type: cell-based, human; conditions: U118, 7 50 nM, TGF-β1 50 ng/mL
# Protocol: For the scratch assay, U118 cells were seeded in triplicate in 24-well plates at a concentration of 300,000 cells/well and allowed to adhere overnight. The cells were then scratched with a 10 μL plastic pipette tip, washed with PBS, and covered with serum-free DMEM containing TGF-β1 (50 ng/mL) and compound 7 (50 nM). Scratches were photographed at 0, 24, and 48 h using an EVOS XL Core microscope. Wound closure was determined by estimating the scratch area at each time point using ImageJ software and normalizing to the scratch area at 0 h.
# [7] = tested on: U87 secondary tumorspheres; assay: Secondary tumorsphere formation, U87; assay type: cell-based, human
# Protocol: For evaluation of spheroid growth, the bottom of the 96-well plate was covered with 1% agarose for non-adherent conditions. U87 cells (5,000 cells/well) were then seeded and allowed to form spheroids for 24 h, after which increasing concentrations of compound 7 (0–1,000 nM) were added (n = 8). Every other day of the 10-day experiment, fresh medium supplemented with compound 7 was added to half of the medium, and the spheroids were photographed using a camera-equipped ZEISS Primo Vert microscope (Carl Zeiss Microscopy GmbH, Jena, Germany). To assess the formation of secondary tumorspheres, cells were dissociated from primary tumorspheres after 4 days of compound 7 stimulation using TrypLE Express and were then seeded into agarose-coated 96-well plates (n = 8). On day 3, the resulting secondary spheroids were examined microscopically. Primary and secondary spheroid areas were quantified using ImageJ.
# [8] = tested on: U87 glioblastoma xenograft; assay: U87 glioblastoma xenograft model; assay type: in vivo, athymic nude mice; conditions: 7 20 mg/kg i.p.
# Protocol: A xenograft model of tumor progression was induced by subcutaneous (s.c.) implantation of U87 glioblastoma cells (2×10^7 cells/mL) suspended in 0.1 mL of saline buffer into the left flank of athymic nude mice. On day 4 after tumor transplantation, the mice were divided into four groups: (1) mice received intraperitoneal (i.p.) injections of 10% Tween-80 (vehicle) (n = 6); (2) mice received i.p. injections of compound 7 in 10% Tween-80 at a dose of 20 mg/kg (n = 5); (3) mice received i.p. injections of TMZ in saline buffer at a dose of 10 mg/kg (n = 5); (4) mice received combination therapy of compound 7 and TMZ at the same dosage and administration route (n = 6). Compound 7 was administered three times per week; in total seven injections were performed. TMZ was administered daily except weekends; in total eleven injections were performed. During the experiment, the tumor volumes were determined three times per week using caliper measurements and were calculated as V = (D × d^2)/2, where D is the longest diameter of the tumor node and d is the shortest diameter of the tumor node perpendicular to D. Mice were sacrificed on day 19 after tumor transplantation and material (tumor nodes, livers, and kidneys) was collected for subsequent analysis.
compound,measurement,setting,value
"Cc1ccc(NC(=O)[C@@]2(C)CC[C@]3(C)CC[C@]4(C)[C@H](C(=O)C=C5[C@@]6(C)C=C(C#N)C(=O)C(C)(C)C6CC[C@]54C)[C@@H]3C2)cc1 (stereo partly shown) [compound 7, N-p-tolyl-2-cyano-3,12-dioxo-18βH-olean-9(11),1(2)-dien-30-amide]",IC50,[1],257 nM
same,shape (aspect ratio) of TGF-β1-induced U118 cells,[2],restored the shape of TGF-β1-induced cells to that of the control cells
same,TGF-β1-induced decrease in U118 cell adhesion to culture plastic,[3],effectively reversed
same,TGF-β1-induced adhesion of U87 cells to Matrigel,[4],effectively suppressed this induction to almost control levels
same,suppression of transwell migration compared to cells stimulated with TGF-β1 alone,[5],1.7 fold
same,effect on TGF-β1-enhanced wound closure at 24 h,[6]; 24 h,completely reversed
same,reduction of the effect of TGF-β1 on wound closure at 48 h,[6]; 48 h,34%
same,increase of secondary tumorsphere area,"[7]; U87, 7 50 nM for 4 days, p-value <0.01",22.6%
same,increase of secondary tumorsphere area,"[7]; U87, 7 100 nM for 4 days, not statistically significant",6.6%
same,decrease of secondary tumorsphere area,"[7]; U87, 7 450 nM for 4 days",23.9%
same,decrease of secondary tumorsphere area,"[7]; U87, 7 1,000 nM for 4 days",84.1%
same,reduction in tumor volume compared to the vehicle group,[8]; day 11,2.1 fold
same,reduction in tumor volume compared to the vehicle group,[8]; day 13,3.2 fold
same,reduction in tumor volume compared to the vehicle group,"[8]; day 15, TMZ 10 mg/kg i.p.",6.6 fold
same,reduction in tumor volume compared to the vehicle group,"[8]; day 18, TMZ 10 mg/kg i.p.",7.2 fold
same,reduction in tumor weight compared to the vehicle,"[8]; end of the experiment (day 19), TMZ 10 mg/kg i.p.",8 fold
